Assay [1] addresses T1, Adenosine receptor A1 (Homo sapiens, UniProt P30542).
T1 sequence (P30542 whole entry): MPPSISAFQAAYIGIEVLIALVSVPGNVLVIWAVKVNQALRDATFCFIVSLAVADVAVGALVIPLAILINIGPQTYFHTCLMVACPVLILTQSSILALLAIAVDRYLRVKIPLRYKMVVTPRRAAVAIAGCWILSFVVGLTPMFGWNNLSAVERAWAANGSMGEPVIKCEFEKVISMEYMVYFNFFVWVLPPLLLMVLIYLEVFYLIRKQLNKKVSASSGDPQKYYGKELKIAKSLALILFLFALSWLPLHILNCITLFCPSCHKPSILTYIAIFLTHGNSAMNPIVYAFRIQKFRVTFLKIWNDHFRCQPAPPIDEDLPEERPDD
Briefly: Compound was evaluated for the Adenosine A1 receptor agonist potency. It is filed as functional, Cricetulus griseus.

Assay [2] is described as follows: Compound was evaluated for the maximal inhibition of (-)-isoproterenol stimulated cAMP accumulation in DDT-1 MF-2 cells. It is filed as functional, Cricetulus griseus.

pEC50: −log10 of the molar value.

What is called pEC50 is the EC50 on a negative log10 scale, so that one unit is a factor of ten. The low end stands for a large EC50, the high end for a small EC50. Turning to `OC[C@H]1O[C@@H](n2cnc3c(N[C@H]4CC5CC4C4OC54)ncnc32)[C@H](O)[C@@H]1O` (stereo not given in full), the pEC50 in assay [1] was 9.09. Also, in assay [2], the Max inhibition is recorded as 81%.
`OC[C@H]1O[C@@H](n2cnc3c(NC4CCCC4)ncnc32)[C@H](O)[C@@H]1O` [N6-CYCLOPENTYLADENOSINE] registered a Max inhibition in assay [2] of 80%.
In assay [1], `OC[C@H]1O[C@@H](n2cnc3c(N[C@@H]4CC5CC4C4OC54)ncnc32)[C@H](O)[C@@H]1O` (stereo not given in full) had a pEC50 of 8.00. The compound further returned a Max inhibition in assay [2] of 82%.

The values above are taken from ChEMBL document CHEMBL1129007, “The design and synthesis of novel adenosine agonists” (Bioorg Med Chem Lett, 1996).
